Here are results for eleven compounds from patent US5432195A, “Benzofuran derivative and pharmaceutical composition” (Nippon Shinyaku Company Limited, priority 1991, dated 1995).

Data set [1] relates to total cholesterol (TC) in serum. Nature of the data set: lowering total cholesterol (TC) in serum using normal rhesus monkeys. The note with it: oral. Type of data set: in vivo. The text has this:
1) An action of lowering total cholesterol (TC) in serum using normal rhesus monkeys. Test Method: Male rhesus monkeys of 2-5 years age (body weight: 3.0-6.4 kg; Experiment No.1) or male rhesus monkeys of 2-6 years age (body weight: 3.5-8.0 kg; Expt. Nos. 2, 3 and 4) were subjected to the experiments. During the experiment, solid feed (manufactured by Oriental Yeast) was given at the dose of 150 g once daily. Each group consisted of 2 to 6 monkeys. The substance to be tested was in a form of suspension in 0.5% methylcellulos solution. The suspension was given orally using rubber probe at the dose of 30, 50 or 100 mg/kg for seven days (Expt. Nos. 1 and 2(2)) or for 28 days (Expt. Nos. 2(1), 3 and 4). Blood was taken from saphena in lower limbs one week and immediately before the administration and also 7, 14, 21 and 28 days after the administration of the suspension whereby serum TC was measured. The change rate of serum TC was calculated by the following expression. The change rate of serum TC=(ATC-BTC)/BTC×100 In the expression, ATC is the TC after administration of the substance tested while BTC is the TC before the administration (average of those one week and immediately before the administration).

The test system of data set [2] is fatty acid synthesis (liver slices of rat). Kind of data set: lipid biosynthesis by tissue slices of liver of rat: fatty acid synthesis. Type of data set: cell-based. The note with it: 10 μg/ml, percentage to the control; for activity at 10 µg/mL: Rattus norvegicus, 2 h, read-out: Fatty Acid Synth.; for Fatty Acid Synth.: 120 min. As to the method: (§1) 5) Action of the compounds of the present invention to lipid biosynthesis by tissue slices of liver of rat
(§2) Test method: Krebs-Ringer-Bicarbonate solution (1 ml) containing 1 mM of ^14 C-acetic acid and 10 μg/ml of the test substance was added to 100 mg of liver slices of rat, the air was substituted with a mixed gas (oxygen:carbon dioxide=95:5) and incubation was conducted at 37° C. for 2 hours. After completion of the reaction, 15% ethanolic solution of potassium hydroxide was added and saponification was conducted at 75° C. for 2 hours. A part of the saponified solution was subjected to a measurment of protein. Residual saponified solution was extracted with petroleum ether and the radioactivity of the petroleum ether layer was measured to determine the cholesterol synthesizing activity. The aqueous layer was acidified with 6N hydrochloric acid, extracted with petroleum ether and the radioactivity of the extract was measured to determine fatty acid synthesizing activity. The values were expressed in terms of percentage to the control after calculating the mol numbers (nmol/mg) of the ^14 C-acetic acid incorporated into each extract per protein (nmol/mg protein).

For data set [3], the system named is cholesterol synthesis (liver slices of rat). Kind of data set: lipid biosynthesis by tissue slices of liver of rat: cholesterol synthesis. Type of data set: cell-based. The note with it: 10 μg/ml, percentage to the control; for activity at 10 µg/mL: Rattus norvegicus, 2 h, read-out: Cholesterol Synth.; for Cholesterol Synth.: 120 min. The protocol:
as §1, §2

Data set [4] concerns Lp(a). The note with it: J. Internal Medicine 226 271-276 (1989); cited from earlier work.
Data set [5] concerns Mice of ddY-strain. Nature of the data set: Acute Toxicity. Type of data set: in vivo. The note with it: oral, 2 g/kg. The protocol: Mice of ddY-strain (7 weeks age; four mice per group) were fasted overnight, the compound of Example 4 of the present invention suspended in 0.5% methylcellulose solution was orally administered at 2 g/kg and the general symptoms until 3 hours after that and those until one week thereafter were checked.

In data set [6] the test system is serum TC. Kind of data set: Serum TC lowering action in normal crab-eating macaques. Type of data set: in vivo. The text has this: 2) Serum TC lowering action in normal crab-eating macaques.
Test Method: Male crab-eating macaques (body weight: 2.5-6.6 kg) were subjected to the experiments. During the expriment period, the feed (manufactured by Oriental Yeast) containing 0.1% (Expt. No. 1) or 0.3% (Expt. No. 2) of the compound of Example 4 was given once daily a 35 g/kg for 5 weeks (0.1%) or for 8 weeks (0.3%). Usual feed for monkeys was given to the control group. Blood was taken immediately before the administration and 1, 2 and 5 weeks after the administration in the case of 0.1% mixed feed or, in the case of 0.3% mixed feed, immediately before and 2, 4, 6 and 8 weeks after the administration. All operations for taking blood were conducted prior to giving the feed and the serum TC therein was measured. The change rate of the serum TC was calculated by the following expression.
The change rate of serum TC=(ATC-BTC)/BTC×100
In the expression, ATC is the TC after administration of the substance tested and BTC is the TC immediately before administration.

Data set [7] has as its system cholesterol synthesis (liver slices of rat). Kind of data set: lipid biosynthesis of tissue slices of liver of rat (part 2): cholesterol synthesis. Type of data set: cell-based. The note with it: 2 h, 10 μg/ml, percentage to the control. As to the method: as §2
(§3) 6) Action of the compounds of the present invention to lipid biosynthesis of tissue slices of liver of rat (part 2)
(§4) The activity of the present invention compound was measured by the same manner as above 5). The values were expressed in terms of percentage to the control after calculating the mol numbers (nmol/mg) of the ^14 C-acetic acid incorporated into each extract per protein (nmol/mg protein).

Data set [8] has as its system fatty acid synthesis (liver slices of rat). Nature of the data set: lipid biosynthesis of tissue slices of liver of rat (part 2): fatty acid synthesis. Type of data set: cell-based. The note with it: 2 h, 10 μg/ml, percentage to the control. As to the method: as §2, §3, §4
In data set [9] the test system is Lp(a). Nature of the data set: Influence on Lp(a): lowering Lp(a) in plasma in crab-eating monkeys. Type of data set: in vivo. The note with it: 0.3% in feed, average ± S.E. The protocol:
Five to six crab-eating monkeys (male; body weight ranging 5-9 kg) as one group were fed and, to the group administered with the test sample, the feed containing 0.3% of this invention compound (that of Example 4) was fed while, to the control group, usual feed was given. The Lp(a) concentrations in the plasma were measured by the following method at the initiation of the administration, 13 weeks thereafter and 5 weeks after completion of the administration.
Commercially-available kit manufactured by Biopool Co, was used. In accordance with the procedures as given in the kit, PET buffer and sample buffer were prepared. To 20 μl of the plasma was added 1 ml of sample buffer and to 10 μl or 20 μl the resulting diluted liquid was further added 1.01 ml or 1 ml of the sample buffer to that the liquid diluted to an extent of 5202 times or 2601 times was prepared. In accordance with the steps as instructed by the kit, each 20 μl of the diluted sample was added to each well and measurement was conducted by duplicate. The result was calculated from the working curve prepared from the data obtained for the standard human Lp(a) in the kit.

Structures can show the parent of a compound that is named as a salt.

For the compound `CC(C)c1ccc2oc(C(O)COc3ccc(C(=O)O)cc3)cc2c1` (stereo not shown) [Example 9, 2-[2-(4-Carboxyphenoxy)-1-hydroxyethyl]-5-isopropylbenzofuran calcium salt], the “TC Change Rate” value in [1] (30 mg/kg, after 7 days) was -19%; in data set [1] (30 mg/kg, after 14 days), -34%; in [1] (30 mg/kg, after 21 days), -29%; in data set [1] (30 mg/kg, after 28 days) it was -24%.
For `CC(C)(C)c1ccc2oc(C(O)COc3ccc(C(=O)O)cc3)cc2c1` (single isomer, unassigned; (+)) [Example 11, (+)-5-tert-Butyl-2-[2-(4-carboxyphenoxy)-1-hydroxyethyl]benzofuran], the activity at 10 µg/mL in data set [2] (Expt. 1) came out at 12%; in [2] (Expt. 2) it was 18%; in [3] (Expt. 1), 35%; in data set [3] (Expt. 2), 24%.
For the compound `CC(C)c1ccc2oc(C(O)COc3ccc(C(=O)O)cc3)cc2c1` (stereo not shown) [Example 6, 2-[2-(4-Carboxyphenoxy)-1-hydroxyethyl]5-isopropylbenzofuran], the “TC Change Rate” value in [1] (100 mg/kg, after 7 days) was -42%.
In the case of `CC(C)c1ccc2oc(C(O)COc3ccc(CO)cc3)cc2c1` (stereo not shown) [Example 10, 2-[1-Hydroxy-2-(4-hydroxymethylphenoxy)ethyl]-5-isopropylbenzofuran], the “TC Change Rate” value in [1] (100 mg/kg, after 7 days) is recorded as -32%.
For `O=C(O)c1cccnc1` [Nicotinic acid], in [4], the adverse reactions result was “flushing” and the “concentration of Lp(a) in blood” value was “lowers the concentration of Lp(a) in blood”.
`CC(C)(C)c1ccc2oc(C(O)COc3ccc(C(=O)O)cc3)cc2c1` (stereo not shown) [Example 4, 5-tert-Butyl-2-[2-(4-carboxyphenoxy)-1-hydroxyethyl]benzofuran]: the “Acute toxicity: deaths” value in data set [5] (observed until one week) is “no animals tested were dead”. The “Acute toxicity: general symptoms” value in [5] (until 3 hours and until one week thereafter) is reported as “no abnormal symptoms were noticed”. Also, the activity at 10 µg/mL came out at 20% in data set [2] (Expt. 1); 12% in [2] (Expt. 2); 61% in [7]; 29% in data set [8]; 41% in data set [3] (Expt. 1); 27% in [3] (Expt. 2). The “TC Change Rate” value in data set [6] (0.1% in the feed, after 1 week) is 16%; in data set [6] (0.1% in the feed, after 2 weeks), -18%; in data set [6] (0.1% in the feed, after 5 weeks), -31%; in data set [6] (0.3% in the feed, after 2 weeks), -32%; in data set [6] (0.3% in the feed, after 4 weeks), -46%; in data set [6] (0.3% in the feed, after 6 weeks), -42%. Further, the “TC Change Rate” value in data set [6] (0.3% in the feed, after 8 weeks) is -37%. The entries for the “Plasma Lp(a)” value in [9] (5 weeks after completion of administration), in data set [9] (13 weeks thereafter) and in data set [9] (Immed. after administration (text: at the initiation)) were 60.1 ± 7.9 mg/dL, 9.2 ± 1.2 mg/dL and 73.2 ± 8.5 mg/dL, respectively.
On to `CC(C)(Oc1ccc(CCNC(=O)c2ccc(Cl)cc2)cc1)C(=O)O` [Bezafibrate, reference compound], for which the “TC Change Rate” value is given as -13% in data set [1] (100 mg/kg, after 7 days); -10% in [1] (100 mg/kg, after 14 days); 3% in data set [1] (100 mg/kg, after 21 days); -7% in data set [1] (100 mg/kg, after 28 days).
On to `CC(C)(C)c1ccc2oc(C(O)COc3ccc(C(=O)O)cc3)cc2c1` (single isomer, unassigned; (-)) [Example 12, (-)-5-tert-Butyl-2-[2-(4-carboxyphenoxy)-1-hydroxyethyl]benzofuran], for which the “Fatty Acid Synth.” value in [2] (Expt. 1) is 16%; in [2] (Expt. 2), 14%. In addition, the “Cholesterol Synth.” value in [3] (Expt. 1) was found to be 33%; in data set [3] (Expt. 2), 27%.
As for `CC(C)c1ccc2oc(C(O)COc3ccc(C(=O)O)cc3)cc2c1` (stereo not shown) [Example 8, 2-[2-(4-Carboxyphenoxy)-1-hydroxyethyl]-5-isopropylbenzofuran sodium salt], the “TC Change Rate” value in data set [1] (50 mg/kg, after 7 days) is given as -31%; in data set [1] (50 mg/kg, after 14 days) it was -31%; in data set [1] (50 mg/kg, after 21 days) it was -44%; in data set [1] (50 mg/kg, after 28 days) it was -51%.
Turning to `CC(C)(C)c1ccc2oc(C(=O)COc3ccc(C(=O)O)cc3)cc2c1` [Example 14, 5-tert-Butyl-2-(4-carboxyphenoxyacetyl)benzofuran], the activity at 10 µg/mL turned out to be 64% in [7] and 32% in data set [8].
The matching figures for `CC(=O)OC(COc1ccc(C(=O)O)cc1)c1cc2cc(C(C)C)ccc2o1` (stereo not shown) [Example 17, 2-[1-Acetoxy-2-(4-carboxyphenoxy)ethyl]-5-isopropylbenzofuran]: 66% and 33%.
